Data as given in patent US12690591B2, “Fungicidal composition containing oxadiazole compounds” (PI INDUSTRIES LIMITED, priority 2021, dated 2026).
Like-named read-outs stand apart in the source and are kept apart here.

Tests used:
[1] = test system: Pseudoperonospora cubensis; experiment: Pseudoperonospora cubensis test (cucumber), preventive glasshouse spray test; assay type: in vivo
Source text: The test solutions were poured into the spray bottles for further applications.

[2] = test system: Septoria nodorum; experiment: Parastagonospora nodorum/Septoria nodorum/Stagnospora nodorum test (wheat), preventive glasshouse spray test; assay type: in vivo; conditions: preventive spray on wheat plants
[3] = test system: Pyricularia oryzae; experiment: whole plant or invertebrate; assay type: in vivo; conditions: for Observed Efficacy (%): preventive spray on rice plants
[4] = test system: Corynespora cassiicola; experiment: Corynespora cassiicola test (tomato), preventive glasshouse spray test; assay type: in vivo; conditions: single compound
[5] = test system: Alternaria solani; experiment: Alternaria solani test (tomato plants), preventive glasshouse spray test; conditions: for pest or weed control at 1 ppm / pest or weed control at 5 ppm / pest or weed control at 10 ppm: Alternaria solani, in Solanum lycopersicum, read-out: Observed Efficacy (%)
[6] = test system: Phakopsora pachyrhizi; experiment: Phakopsora pachyrhizi test (soybean), preventive glasshouse spray test; assay type: in vivo; conditions: for pest or weed control at 0.05 ppm / pest or weed control at 0.0001 ppm / pest or weed control at 0.001 ppm / pest or weed control at 0.01 ppm / pest or weed control at 0.1 ppm: Phakopsora pachyrhizi, read-out: Observed Efficacy (%)
[7] = test system: Phytopthora infestans; assay type: in vivo; conditions: single compound, tomato, preventive spray
[8] = test system: Botrytis cinerea; experiment: Botrytis cinerea test (tomato), preventive glasshouse spray test; assay type: in vivo
[9] = test system: Erysiphe cichoracearum; experiment: Erysiphe cichoracearum test (cucumber), preventive glasshouse spray test; conditions: preventive spray on cucumber plants
[10] = Table G1, single compound, 0.05 ppm
[11] = Table G1, single compound, 0.1 ppm
[12] = single compound, Conc. 0.05 ppm
[13] = Table D1, single compound, 0.05 ppm, soybean, preventive spray
[14] = Pyricularia oryzae, read-out: Observed Efficacy (%)
[15] = Table D3, single compound, 0.05 ppm, soybean, preventive spray
[16] = Table D3, single compound, 0.1 ppm, soybean, preventive spray

`O=C(NCCc1ncc(C(F)(F)F)cc1Cl)c1ccccc1C(F)(F)F` [Fluopyram, fluopyram] was tested, and the “Observed Efficacy (%)” value [1, 10] was 2%, the “Observed Efficacy (%)” value [1, 11] was 12% and the “Observed Efficacy (%)” value [1, 12] was 2%. The “Observed Efficacy (%)” value ([1]; single compound, Conc. 0.1 ppm) was 12%, the “Observed Efficacy (%)” value ([2]; single compound at 0.05 ppm) was 8% and the “Observed Efficacy (%)” value ([2]; single compound at 0.1 ppm) was 21%.

With `CC1CC(C)(C)c2c(F)ccc(NC(=O)c3cn(C)nc3C(F)F)c21` (centres unmarked) [Fluindapyr, fluindapyr, reference compound] the “Observed Efficacy (%)” value [1, 10] was 35% and the “Observed Efficacy (%)” value ([3]; single compound at 0.05 ppm) was 11%.

`O=[N+]([O-])c1cc(C(F)(F)F)c(Cl)c([N+](=O)[O-])c1Nc1ncc(C(F)(F)F)cc1Cl` [Fluazinam, fluazinam] was tested, and the “Observed Efficacy (%)” value ([2]; single compound at 0.1 ppm) was 21% and the “Observed Efficacy (%)” value ([4]; Conc. 0.1 ppm) was 12%.

With `CNC(=O)/C(=N/OC)c1ccccc1Oc1ccccc1` [Metominostrobin, metominostrobin] the “Observed Efficacy (%)” value ([2]; single compound at 0.05 ppm) was 6% and the “Observed Efficacy (%)” value ([2]; single compound at 0.1 ppm) was 12%.

For `CC1CC(C)(C)c2c(F)ccc(NC(=O)c3cn(C)nc3C(F)F)c21` (centres unmarked) [Inpyrfluxam, inpyrfluxam], the “Observed Efficacy (%)” value ([5]; single compound at 0.1 ppm, preventive spray on tomato plants) was 23%, the “Observed Efficacy (%)” value ([2]; single compound at 0.05 ppm) was 12% and the “Observed Efficacy (%)” value ([4]; Conc. 0.05 ppm) was 16%. For the same compound, the “Observed Efficacy (%)” value [6, 13] was 18%.

In the case of `O=C(Nc1ccccc1-c1ccc(Cl)cc1)c1cccnc1Cl` [Boscalid, boscalid, reference compound], the “Observed Efficacy (%)” value ([7]; Conc. 0.1 ppm) is reported as 11% and the pest or weed control at 0.05 ppm [6, 13] is reported as 27%.

`O=C1c2ccccc2C(=O)N1SC(Cl)(Cl)Cl` [Folpet, folpet, reference compound] was tested, and the “Observed Efficacy (%)” value ([7]; Conc. 0.1 ppm) was 11% and the “Observed Efficacy (%)” value ([8]; Table F1, single compound, 0.1 ppm, tomato, preventive spray) was 38%.

`O=C(CNc1ccc(F)cc1)c1ccc(-c2noc(C(F)(F)F)n2)cc1` [Compound (I-8), 2-((4-fluorophenyl)amino)-1-(4-(5-(trifluoromethyl)-1,2,4-oxadiazol-3-yl)phenyl)ethan-1-one] was tested, and the “Observed Efficacy (%)” value ([1]; single compound, Conc. 1 ppm) was 17%, the “Observed Efficacy (%)” value ([1]; single compound, Conc. 5 ppm) was 19% and the “Observed Efficacy (%)” value ([1]; single compound, Conc. 10 ppm) was 28%. The “Observed Efficacy (%)” value ([7]; Conc. 1 ppm) was 32%, the “Observed Efficacy (%)” value ([7]; Conc. 5 ppm) was 42% and the pest or weed control at 1 ppm [5] was 26%. It also gave a pest or weed control at 5 ppm [5] of 37%, a pest or weed control at 10 ppm [5] of 47% and a pest or weed control at 1 ppm [3, 14] of 17%. The pest or weed control at 5 ppm [3, 14] was 22%, the pest or weed control at 10 ppm [3, 14] was 31% and the pest or weed control at 0.0001 ppm ([6]; Table D3, single compound, 0.0001 ppm, soybean, preventive spray) was 37%. The pest or weed control at 0.001 ppm ([6]; Table D3, single compound, 0.001 ppm, soybean, preventive spray) was 47%, the pest or weed control at 0.01 ppm ([6]; Table D3, single compound, soybean, preventive spray) was 60% and the “Observed Efficacy (%)” value ([9]; single compound at 1 ppm) was 19%. The “Observed Efficacy (%)” value ([9]; single compound at 5 ppm) was 25% and the “Observed Efficacy (%)” value ([9]; single compound at 10 ppm) was 31%.

For `CC(O)(Cn1cncn1)c1ccc(Oc2ccc(Cl)cc2)cc1C(F)(F)F` (centres unmarked) [Mefentrifluconazole, mefentrifluconazole], the “Observed Efficacy (%)” value [6, 15] was 32% and the “Observed Efficacy (%)” value [6, 16] was 44%.

With mancozeb the “Observed Efficacy (%)” value [1, 10] was 2%, the “Observed Efficacy (%)” value [1, 11] was 5% and the “Observed Efficacy (%)” value [1, 12] was 2%. The “Observed Efficacy (%)” value ([1]; single compound, Conc. 0.1 ppm) was 5% and the “Observed Efficacy (%)” value ([4]; Conc. 0.05 ppm) was 10%.

With `N#Cc1sc2c(=O)c3ccccc3c(=O)c=2sc1C#N` [Dithianon, dithianon] the “Observed Efficacy (%)” value ([2]; single compound at 0.1 ppm) was 16%.

Compound `COC(=O)N(OC)c1ccccc1COc1ccn(-c2ccc(Cl)cc2)n1` [Pyraclostrobin, pyraclostrobin] has a pest or weed control at 0.05 ppm [6, 15] of 37% and a pest or weed control at 0.1 ppm [6, 16] of 46%.

With `O=C(COc1ccc(F)nc1)c1ccc(-c2noc(C(F)(F)F)n2)cc1` [Compound (I-3), 2-((6-fluoropyridin-3-yl)oxy)-1-(4-(5-(trifluoromethyl)-1,2,4-oxadiazol-3-yl)phenyl)ethan-1-one] the “Observed Efficacy (%)” value [1, 11] was 36%, the “Observed Efficacy (%)” value ([1]; Table G1, single compound, 1 ppm) was 32% and the “Observed Efficacy (%)” value ([1]; Table G1, single compound, 10 ppm) was 34%. For the same compound, the pest or weed control at 1 ppm [5] was 35%, the pest or weed control at 5 ppm [5] was 40% and the pest or weed control at 10 ppm [5] was 47%. The pest or weed control at 10 ppm [3, 14] was 42%, the “Observed Efficacy (%)” value ([4]; Conc. 5 ppm) was 36% and the “Observed Efficacy (%)” value ([4]; Conc. 10 ppm) was 45%. The pest or weed control at 0.0001 ppm ([6]; single compound at 0.0001 ppm, preventive spray on soybean plants) was 43%, the pest or weed control at 0.001 ppm ([6]; single compound at 0.001 ppm, preventive spray on soybean plants) was 50% and the “Observed Efficacy (%)” value ([9]; single compound at 1 ppm) was 35%. The “Observed Efficacy (%)” value ([9]; single compound at 5 ppm) was 37%, the “Observed Efficacy (%)” value ([9]; single compound at 10 ppm) was 39% and the “Observed Efficacy (%)” value ([8]; single compound at 10 ppm, preventive spray on tomato plants) was 20%.

In the case of `Cn1cc(C(=O)Nc2cccc3c2[C@@H]2CC[C@H]3C2=C(Cl)Cl)c(C(F)F)n1` (racemic) [Benzovindiflupyr, benzovindiflupyr], the “Observed Efficacy (%)” value ([4]; Conc. 0.05 ppm) is reported as 18%.

With `OC(Cc1ccccc1Cl)(Cn1nc[nH]c1=S)C1(Cl)CC1` (centres unmarked) [Prothioconazole, prothioconazole] the “Observed Efficacy (%)” value ([1]; single compound, Conc. 0.1 ppm) was 45%, the pest or weed control at 0.1 ppm ([6]; Table D1, single compound, 0.1 ppm, soybean, preventive spray) was 48% and the “Observed Efficacy (%)” value [6, 16] was 48%.

With metiram [reference compound] the “Observed Efficacy (%)” value ([3]; single compound at 0.1 ppm) was 18%.

`CO/C=C(/C(=O)OC)c1ccccc1Oc1cc(Oc2ccccc2C#N)ncn1` [Azoxystrobin, azoxystrobin, reference compound] was tested, and the “Observed Efficacy (%)” value ([3]; single compound at 0.1 ppm) was 26%.

`O=C(COc1ccc(F)cc1)c1ccc(-c2noc(C(F)(F)F)n2)cc1` [Compound (I-2), 2-(4-fluorophenoxy)-1-(4-(5-(trifluoromethyl)-1,2,4-oxadiazol-3-yl)phenyl)ethan-1-one] was tested, and the pest or weed control at 1 ppm [5] was 34%, the pest or weed control at 5 ppm [5] was 42% and the pest or weed control at 10 ppm [5] was 47%. For the same compound, the pest or weed control at 1 ppm [3, 14] was 17%, the pest or weed control at 10 ppm [3, 14] was 37% and the “Observed Efficacy (%)” value ([2]; single compound at 1 ppm) was 17%. For the same compound, the “Observed Efficacy (%)” value ([2]; single compound at 5 ppm) was 20%, the “Observed Efficacy (%)” value ([2]; single compound at 10 ppm) was 43% and the pest or weed control at 0.0001 ppm ([6]; Table D1, single compound, 0.0001 ppm, soybean, preventive spray) was 40%. For the same compound, the pest or weed control at 0.001 ppm ([6]; Table D1, single compound, 0.001 ppm, soybean, preventive spray) was 50%, the pest or weed control at 0.01 ppm ([6]; Table D1, single compound, soybean, preventive spray) was 62% and the “Observed Efficacy (%)” value ([9]; single compound at 1 ppm) was 13%. For the same compound, the “Observed Efficacy (%)” value ([8]; Table F1, single compound, 1 ppm, tomato, preventive spray) was 20%, the “Observed Efficacy (%)” value ([8]; Table F1, single compound, 5 ppm, tomato, preventive spray) was 27% and the “Observed Efficacy (%)” value ([8]; Table F1, single compound, 10 ppm, tomato, preventive spray) was 47%.
